Where a name gives a salt, the structure may show the parent alone.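 Test compounds were applied to cells in 96-well plates for 48 hours at 5 doses. Abbreviation: GI50, concentration required for 50% inhibition of growth.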 Calls of active or inactive are those of the source. Cut-off read from the data, not from the text of the source: active = GI50 up to about 1.1 µM and inactive = higher. Residues, ends and D or L forms follow the SMILES beside them. *: point of attachment. Bn = c1ccc(C*)cc1
Key:
Assay in all cases: inhibition of tumour cell growth, NCI panel, 48 h
BT-549 = test system: BT-549
CAKI-1 = test system: CAKI-1
CCRF-CEM = test system: CCRF-CEM
EKVX = test system: EKVX
HCT-15 = test system: HCT-15
HL-60 = test system: HL-60
Hs-578T = test system: Hs-578T
KM12 = test system: KM12
LOX IMVI = test system: LOX IMVI
MDA-MB-231 = test system: MDA-MB-231
NCI-H522 = test system: NCI-H522
NCI/ADR-RES = test system: NCI/ADR-RES
OVCAR-4 = test system: OVCAR-4
RXF 393 = test system: RXF 393
SNB-75 = test system: SNB-75
SR = test system: SR
T47D = test system: T47D
UACC-257 = test system: UACC-257
UACC-62 = test system: UACC-62
UO-31 = test system: UO-31

SMILES | GI50 (BT-549) | GI50 (CAKI-1) | GI50 (CCRF-CEM) | GI50 (EKVX) | GI50 (HCT-15) [µM] | GI50 (HL-60) | GI50 (Hs-578T) | GI50 (KM12) | GI50 (LOX IMVI) | GI50 (MDA-MB-231) | GI50 (NCI-H522) | GI50 (NCI/ADR-RES) | GI50 (OVCAR-4) | GI50 (RXF 393) | GI50 (SNB-75) | GI50 (SR) | GI50 (T47D) | GI50 (UACC-257) | GI50 (UACC-62) | GI50 (UO-31)
COC(=O)C(CC(C)C)NC(=O)C(N)Cc1ccc(OCc2ccccc2)cc1 (centres undefined) (H-Tyr(Bn)-Leu-OMe; configuration not given here) | > 10 µM (inactive) | > 10 µM (inactive) | > 10 µM (inactive) | > 10 µM (inactive) | > 10 | 2.54 µM (inactive) | > 10 µM (inactive) | > 10 µM (inactive) | > 10 µM (inactive) | > 10 µM (inactive) | > 10 µM (inactive) | > 10 µM (inactive) | > 10 µM (inactive) | > 10 µM (inactive) | > 10 µM (inactive) | 7.64 µM (inactive) | > 10 µM (inactive) | > 10 µM (inactive) | > 10 µM (inactive) | > 10 µM (inactive)
O=C(Nc1nnc(-c2ccccc2)o1)C(SC(=S)N1CCCC1)c1ccccc1 (centres undefined) | 23.1 µM (inactive) | 29.9 µM (inactive) | 13.4 µM (inactive) | 22.3 µM (inactive) | 6.9 | 19.9 µM (inactive) | 87.9 µM (inactive) | 32.8 µM (inactive) | 14.1 µM (inactive) | 39 µM (inactive) | 22.3 µM (inactive) | 6.67 µM (inactive) | 38.7 µM (inactive) | 40.3 µM (inactive) | 40.8 µM (inactive) | 20.1 µM (inactive) | 46.8 µM (inactive) | 37 µM (inactive) | – | 13.3 µM (inactive)
O=[N+]([O-])c1ccc2c(c1)Nc1c3ccccc3nc3cccc-2c13 | 16.3 µM (inactive) | 4.67 µM (inactive) | 1.84 µM (inactive) | 11.6 µM (inactive) | 3.56 | 1.32 µM (inactive) | 6.53 µM (inactive) | 3.57 µM (inactive) | 1.93 µM (inactive) | 2.41 µM (inactive) | 3.44 µM (inactive) | 2.82 µM (inactive) | 1.43 µM (inactive) | 8.39 µM (inactive) | 3.61 µM (inactive) | 0.733 µM (active) | 3.95 µM (inactive) | 16.9 µM (inactive) | 4.16 µM (inactive) | 5.65 µM (inactive)
COc1ccc(/C=C\c2cc(OC)c(OC)c(OC)c2)cc1OC | 0.912 µM (active) | 0.156 µM (active) | 0.13 µM (active) | 0.188 µM (active) | 0.113 | 0.0912 µM (active) | 0.0604 µM (active) | 0.0957 µM (active) | 0.32 µM (active) | 0.472 µM (active) | 0.0349 µM (active) | 0.222 µM (active) | 15.8 µM (inactive) | 0.121 µM (active) | 0.098 µM (active) | 0.0649 µM (active) | 22.2 µM (inactive) | 0.136 µM (active) | 0.197 µM (active) | 2.21 µM (inactive)
CC(O)c1cc2c(s1)C(=O)c1scc(C(C)O)c1C2=O (centres undefined) | 0.211 µM (active) | 1.01 µM (active) | 1.18 µM (inactive) | 0.991 µM (active) | 0.352 | 0.646 µM (active) | 0.394 µM (active) | 1.79 µM (inactive) | 0.172 µM (active) | 0.316 µM (active) | 0.628 µM (active) | 0.283 µM (active) | 0.745 µM (active) | 0.881 µM (active) | 0.29 µM (active) | 0.271 µM (active) | 1.95 µM (inactive) | 0.176 µM (active) | 0.245 µM (active) | 0.337 µM (active)
NCCc1ccc(S(=O)(=O)O)cc1[N+](=O)[O-] | > 100 µM (inactive) | > 100 µM (inactive) | > 100 µM (inactive) | > 100 µM (inactive) | > 100 | > 100 µM (inactive) | > 100 µM (inactive) | > 100 µM (inactive) | > 100 µM (inactive) | > 100 µM (inactive) | > 100 µM (inactive) | > 100 µM (inactive) | > 100 µM (inactive) | > 100 µM (inactive) | > 100 µM (inactive) | 4.71 µM (inactive) | > 100 µM (inactive) | > 100 µM (inactive) | > 100 µM (inactive) | > 100 µM (inactive)
CCOC(=O)C1=C(C)N(Cc2ccccc2)C2(O)C=CC(O)=C3C(=O)c4ccccc4C(=O)C312 (centres undefined) | 0.541 µM (active) | 12.1 µM (inactive) | 8.61 µM (inactive) | 16.4 µM (inactive) | 3.82 | 15.1 µM (inactive) | 22.4 µM (inactive) | 12.1 µM (inactive) | 14.1 µM (inactive) | 15.3 µM (inactive) | 11.9 µM (inactive) | 0.182 µM (active) | 15.4 µM (inactive) | 3.37 µM (inactive) | 22.1 µM (inactive) | 4.37 µM (inactive) | 18.9 µM (inactive) | 17.2 µM (inactive) | 14.7 µM (inactive) | 9.73 µM (inactive)
COc1ccc(C2Oc3ccc(Cl)cc3C=C2[N+](=O)[O-])cc1OC (centres undefined) | 1.15 µM (inactive) | 1.67 µM (inactive) | 0.0413 µM (active) | 2.72 µM (inactive) | 1.47 | 0.204 µM (active) | 1.07 µM (active) | 1.48 µM (inactive) | 0.32 µM (active) | 1.27 µM (inactive) | 1.05 µM (active) | 0.456 µM (active) | 1.93 µM (inactive) | 1.59 µM (inactive) | 1.13 µM (inactive) | 0.0661 µM (active) | 1.52 µM (inactive) | 1.41 µM (inactive) | 1.5 µM (inactive) | 2 µM (inactive)
CN[C@@H]1[C@H](O)[C@H](NC)[C@H]2O[C@@]3(O)C(=O)C[C@@H](C)O[C@H]3O[C@@H]2[C@H]1O [SPECTINOMYCIN SULFATE] | > 100 µM (inactive) | > 100 µM (inactive) | > 100 µM (inactive) | > 100 µM (inactive) | > 100 | > 100 µM (inactive) | > 100 µM (inactive) | > 100 µM (inactive) | > 100 µM (inactive) | > 100 µM (inactive) | > 100 µM (inactive) | > 100 µM (inactive) | > 100 µM (inactive) | > 100 µM (inactive) | > 100 µM (inactive) | > 100 µM (inactive) | > 100 µM (inactive) | > 100 µM (inactive) | > 100 µM (inactive) | > 100 µM (inactive)
CC(C)C[C@H](NC(=O)[C@@H](Cc1cccc2ccccc12)NC(=O)N1CCOCC1)B(O)O | 3.99 µM (inactive) | 11.1 µM (inactive) | 1.57 µM (inactive) | 14.3 µM (inactive) | 21.9 | 2.77 µM (inactive) | 3.84 µM (inactive) | 5.13 µM (inactive) | 2.36 µM (inactive) | 4.48 µM (inactive) | 1.92 µM (inactive) | 51.4 µM (inactive) | 4.72 µM (inactive) | 2.4 µM (inactive) | 1.18 µM (inactive) | 3.13 µM (inactive) | 2.45 µM (inactive) | 2.18 µM (inactive) | 4.02 µM (inactive) | 19.5 µM (inactive)
CN(C)c1ccc(/C=C/C=C(/C#N)c2ccccc2)cc1 | > 100 µM (inactive) | 33.5 µM (inactive) | 22.3 µM (inactive) | 55.2 µM (inactive) | 6.87 | 2.74 µM (inactive) | 21.9 µM (inactive) | 4.8 µM (inactive) | 11.2 µM (inactive) | 37.8 µM (inactive) | 10.5 µM (inactive) | 6.92 µM (inactive) | > 38.6 µM (inactive) | 36.8 µM (inactive) | 28.4 µM (inactive) | 3.64 µM (inactive) | 9.57 µM (inactive) | 40.7 µM (inactive) | 19.2 µM (inactive) | > 46 µM (inactive)
O=C(N/C(=C/c1ccc(Cl)cc1Cl)c1nc2ccccc2s1)c1ccccc1 | 21.1 µM (inactive) | 15.8 µM (inactive) | 4.72 µM (inactive) | 18.5 µM (inactive) | 4.37 | 32.4 µM (inactive) | 12.1 µM (inactive) | 13.2 µM (inactive) | 5.32 µM (inactive) | 10.3 µM (inactive) | 8.34 µM (inactive) | 15.6 µM (inactive) | 15.5 µM (inactive) | 31 µM (inactive) | 17.9 µM (inactive) | 9.27 µM (inactive) | 13.4 µM (inactive) | 13.4 µM (inactive) | 16.6 µM (inactive) | 13.6 µM (inactive)
C[C@]12CC[C@H]3[C@@H](CC=C4C[C@@H](O)CC[C@@]43C)[C@@H]1C/C(=C/c1ccccc1)[C@@H]2O | 24.1 µM (inactive) | 30.3 µM (inactive) | 14.6 µM (inactive) | 11.8 µM (inactive) | 19.7 | > 43 µM (inactive) | 43 µM (inactive) | 23 µM (inactive) | > 33.6 µM (inactive) | 43.1 µM (inactive) | 14.7 µM (inactive) | 17.7 µM (inactive) | 19.2 µM (inactive) | > 25.1 µM (inactive) | > 41.9 µM (inactive) | 3.85 µM (inactive) | > 22 µM (inactive) | 15.6 µM (inactive) | 17.8 µM (inactive) | 18.1 µM (inactive)
NCCOc1cccc(C2(N3CCCCC3)CCCCC2)c1 | 19.1 µM (inactive) | 94 µM (inactive) | 16.7 µM (inactive) | 21.5 µM (inactive) | 38.9 | 25 µM (inactive) | 16.9 µM (inactive) | 45.3 µM (inactive) | 14.7 µM (inactive) | 21 µM (inactive) | 19.1 µM (inactive) | > 100 µM (inactive) | 35.9 µM (inactive) | 22 µM (inactive) | 32.7 µM (inactive) | 16.1 µM (inactive) | 52.6 µM (inactive) | 19 µM (inactive) | 20.2 µM (inactive) | 13.7 µM (inactive)

From ChEMBL document CHEMBL1201862, “PubChem BioAssay data set” (2004)
